Test results: US11313861B2, “Method of evaluating hepatic glucose uptake capacity” (OTSUKA PHARMACEUTICAL CO., LTD., priority 2016, dated 2022)

Key:
[1] = rat, in vivo, 10 mg/kg
Description: To unfasted ZDF fatty rats (18 weeks old; n=6), ZDF lean rats (18 weeks old; n=6) and SD rats (14 weeks old; n=3) 10 mg/kg of ^13C6-glucose was orally administered. Expired air samples were collected over time before and after the administration and the Δ^13C values of the samples were measured by GC/MS. Three days after the oral administration, 10 mg/kg of ^13C6-glucose was intravenously administered to the same unfasted rats. Expired air samples were collected over time before and after the administration and the Δ^13C values of the samples were measured by GC/MS.
The AUCs of the Δ^13C values were calculated for the oral administration and the intravenous administration, and the difference of the AUCs was calculated. The difference is shown in FIG. 5 as the amount of hepatic glucose uptake (hepatic extraction). […] The mutation is homozygous in the ZDF fatty rats.

[2] = Blood ^13C6-glucose level and expired air Δ^13C after oral ^13C6-glucose, iLIRKO vs IRflox mice; type: in vivo, mouse
From the text: iLIRKO mouse (inducible liver-specific insulin receptor KO mice) can be used as a model for stage B of pre-onset diabetes, the stage of decreased hepatic extraction ratio, because knock out of insulin receptors can be induced only in the liver (Michael M D, et al., Loss of insulin signaling in hepatocytes leads to severe insulin resistance and progressive hepatic dysfunction. Mol Cell 2000; 6 (1): 87-97). To iLIRKO mice (2 to 3 months old, n=5) and IRflox mice (2 to 3 months old, n=5, control) 10 mg/kg of ^13C6-glucose was orally administered. Blood samples and expired air samples were collected over time before and after the administration. The Δ^13C values of the obtained expired air samples were measured by GC/MS. The ^13C6-glucose levels in the blood samples were measured by LC/MS/MS.

[3] = Blood ^13C6-glucose level and expired air Δ^13C after oral ^13C6-glucose, 6-week-old ZDF fatty vs ZDF lean rats; type: in vivo, rat
Description: To fasted ZDF fatty rats (6 weeks old; n=4) and ZDF lean rats (6 weeks old; n=4) 10 mg/kg of ^13C6-glucose (13C6-Glucose [D-GLUCOSE⋅(U-13C6, 99%)], Cambridge Isotope Laboratories, Inc. (Andover, Mass., USA)) was orally administered. Blood samples and expired air samples were collected over time before and after the administration. The Δ^13C values of the obtained expired air samples were measured by GC/MS. The ^13C6-glucose levels in the blood samples were measured by LC/MS/MS. The fasting blood glucose levels were measured before the glucose administration.

[4] = rat, in vivo, po, 10 mg/kg
Description: To unfasted rats (ZDF lean, ZDF fatty, SD, each n=12) 10 mg/kg of ^13C6-glucose was orally administered. […] The blood ^13C6-glucose level was measured by LC/MS/MS.

[5] = Blood ^13C6-glucose level and expired air Δ^13C after oral ^13C6-glucose, 7-week-old ZDF fatty vs ZDF lean rats; type: in vivo, rat
Description: To fasted ZDF fatty rats (7 weeks old; n=4) and ZDF lean rats (7 weeks old; n=4) 10 mg/kg of ^13C6-glucose was orally administered. Blood samples and expired air samples were collected over time before and after the administration. The Δ^13C values of the obtained expired air samples were measured by GC/MS. The ^13C6-glucose levels in the blood samples were measured by LC/MS/MS. The fasting blood glucose levels were measured before the glucose administration.

## OC[C@H]1OC(O)[C@H](O)[C@@H](O)[C@@H]1O (stereo partly drawn) [^13C6-glucose, D-GLUCOSE⋅(U-13C6, 99%)]
[1]
  amount of hepatic glucose uptake (hepatic extraction), difference of the AUCs of Δ^13C between oral and intravenous administration: high in order of the SD rats, the ZDF lean rats, and the ZDF fatty rats
[2]; iLIRKO mice vs IRflox mice, 10 mg/kg oral, LC/MS/MS
  blood ^13C6 glucose levels: kept higher than those of IRflox mice
[2]; mouse, in vivo, po, 10 mg/kg
  Δ^13C values of the expired air samples: kept higher than those of IRflox mice
[3]; fasted 6-week-old ZDF fatty rats vs ZDF lean rats, 10 mg/kg oral, LC/MS/MS
  blood ^13C6 glucose levels: remained lower than those of the ZDF Lean rats
[3]; rat, in vivo, po, 10 mg/kg
  Δ^13C values of the expired air samples: kept higher than those of the ZDF lean rats
[4]
  hepatic extraction ratio of ^13C6-glucose: high in order of the SD rats, the ZDF lean rats, and the ZDF fatty rats
[5]; fasted 7-week-old ZDF fatty rats vs ZDF lean rats, 10 mg/kg oral, LC/MS/MS
  blood ^13C6 glucose levels: remained higher than those of the ZDF Lean rats
[5]; rat, in vivo, po, 10 mg/kg
  Δ^13C values of the expired air samples: kept higher than those of the ZDF lean rats
